Assay results as given in ChEMBL document CHEMBL6087464, “Design, Synthesis, and Biological Evaluation of 3,4-Dihydroisoquinolin-1(2H)-one Derivatives as Protein Arginine Methyltransferase 5 Inhibitors for the Treatment of Non-Hodgkin's Lymphoma” (J Med Chem, 2025).

Key:
[1] = biological target: T1, Histone-arginine methyltransferase CARM1 (Homo sapiens, UniProt Q86X55); experiment: Inhibition of PRMT4 (unknown origin)
T1 sequence (Q86X55 whole entry): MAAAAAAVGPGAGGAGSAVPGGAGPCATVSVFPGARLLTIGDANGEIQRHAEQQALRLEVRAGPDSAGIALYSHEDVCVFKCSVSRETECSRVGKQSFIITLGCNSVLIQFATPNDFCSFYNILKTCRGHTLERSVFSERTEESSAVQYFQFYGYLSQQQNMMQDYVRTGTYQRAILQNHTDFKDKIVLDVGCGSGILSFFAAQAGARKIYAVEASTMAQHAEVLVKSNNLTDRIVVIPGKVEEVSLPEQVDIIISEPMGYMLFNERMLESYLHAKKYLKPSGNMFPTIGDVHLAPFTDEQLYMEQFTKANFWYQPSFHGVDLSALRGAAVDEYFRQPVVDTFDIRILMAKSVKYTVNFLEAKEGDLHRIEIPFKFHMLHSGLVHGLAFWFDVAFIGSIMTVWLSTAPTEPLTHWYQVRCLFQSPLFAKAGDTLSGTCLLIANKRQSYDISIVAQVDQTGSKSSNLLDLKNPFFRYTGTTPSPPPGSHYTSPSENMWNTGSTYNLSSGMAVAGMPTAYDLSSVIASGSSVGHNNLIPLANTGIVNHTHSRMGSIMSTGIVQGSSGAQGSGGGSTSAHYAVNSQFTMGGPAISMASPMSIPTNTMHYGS

[2] = system: Z-138; experiment: Induction of apoptosis in human Z138 cells assessed as late apoptotic cells at 10.0 nM incubated for 168 hrs by Annexin V-FITC/PI staining based flow cytometric analysis (reference value: 0.37 %); type: functional
[3] = MRT (0 to t) in Sprague-Dawley rat at 2 mg/kg, iv by LC-MS/MS analysis; type: ADME, organism-based; conditions: in vivo
[4] = system: Z-138; experiment: Induction of apoptosis in human Z138 cells assessed as viable cells at 0.4 nM incubated for 168 hrs by Annexin V-FITC/PI staining based flow cytometric analysis (reference value: 94.4 %); type: functional; conditions: read-out: Activity
[5] = system: Z-138; experiment: Induction of apoptosis in human Z138 cells assessed as viable cells at 2.0 nM incubated for 168 hrs by Annexin V-FITC/PI staining based flow cytometric analysis (reference value: 94.4 %); type: functional; conditions: read-out: Activity
[6] = system: Z-138; experiment: Induction of apoptosis in human Z138 cells assessed as early apoptotic cells at 2.0 nM incubated for 168 hrs by Annexin V-FITC/PI staining based flow cytometric analysis (reference value: 1.68 %); type: functional
[7] = MRT (0 to t) in Sprague-Dawley rat at 10 mg/kg, po by LC-MS/MS analysis; type: ADME, organism-based; conditions: in vivo
[8] = system: Z-138; experiment: Induction of apoptosis in human Z138 cells assessed as late apoptotic cells at 0.4 nM incubated for 168 hrs by Annexin V-FITC/PI staining based flow cytometric analysis (reference value: 0.37 %); type: functional
[9] = biological target: Protein arginine N-methyltransferase 3 (Homo sapiens, UniProt O60678); experiment: Inhibition of PRMT3 (unknown origin)
Chain of Protein arginine N-methyltransferase 3 (O60678 whole entry): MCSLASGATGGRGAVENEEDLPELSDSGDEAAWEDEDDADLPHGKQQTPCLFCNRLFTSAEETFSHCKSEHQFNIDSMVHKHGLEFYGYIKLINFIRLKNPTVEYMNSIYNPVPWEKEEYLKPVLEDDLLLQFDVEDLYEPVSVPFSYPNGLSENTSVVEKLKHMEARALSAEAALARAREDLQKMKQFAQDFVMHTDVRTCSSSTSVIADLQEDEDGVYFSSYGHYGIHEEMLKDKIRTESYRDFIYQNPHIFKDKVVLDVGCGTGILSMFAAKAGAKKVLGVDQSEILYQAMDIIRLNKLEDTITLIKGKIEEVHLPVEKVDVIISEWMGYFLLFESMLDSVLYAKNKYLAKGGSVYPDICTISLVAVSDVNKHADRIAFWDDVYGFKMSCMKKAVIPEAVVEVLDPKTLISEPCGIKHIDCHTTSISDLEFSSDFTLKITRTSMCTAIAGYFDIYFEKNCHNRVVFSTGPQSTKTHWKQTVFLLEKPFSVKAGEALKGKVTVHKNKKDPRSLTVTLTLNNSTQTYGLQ

[10] = Cmax in Sprague-Dawley rat at 10 mg/kg, po by LC-MS/MS analysis; type: ADME, organism-based; conditions: Sprague-Dawley, in vivo, read-out: Cmax
[11] = Tmax in Sprague-Dawley rat at 10 mg/kg, po by LC-MS/MS analysis; type: ADME, organism-based; conditions: Sprague-Dawley, in vivo, read-out: Tmax
[12] = AUC (0 to t) in Sprague-Dawley rat at 2 mg/kg, iv by LC-MS/MS analysis; type: ADME, organism-based; conditions: in vivo
[13] = system: Z-138; experiment: Induction of apoptosis in human Z138 cells assessed as early apoptotic cells at 10.0 nM incubated for 168 hrs by Annexin V-FITC/PI staining based flow cytometric analysis (reference value: 1.68 %); type: functional
[14] = system: Z-138; experiment: Induction of apoptosis in human Z138 cells assessed as viable cells at 50.0 nM incubated for 168 hrs by Annexin V-FITC/PI staining based flow cytometric analysis (reference value: 94.4 %); type: functional; conditions: read-out: Activity
[15] = biological target: Protein arginine N-methyltransferase 1 (Homo sapiens, UniProt Q99873); experiment: Inhibition of PRMT1 (unknown origin)
Chain of Protein arginine N-methyltransferase 1 (Q99873 whole entry): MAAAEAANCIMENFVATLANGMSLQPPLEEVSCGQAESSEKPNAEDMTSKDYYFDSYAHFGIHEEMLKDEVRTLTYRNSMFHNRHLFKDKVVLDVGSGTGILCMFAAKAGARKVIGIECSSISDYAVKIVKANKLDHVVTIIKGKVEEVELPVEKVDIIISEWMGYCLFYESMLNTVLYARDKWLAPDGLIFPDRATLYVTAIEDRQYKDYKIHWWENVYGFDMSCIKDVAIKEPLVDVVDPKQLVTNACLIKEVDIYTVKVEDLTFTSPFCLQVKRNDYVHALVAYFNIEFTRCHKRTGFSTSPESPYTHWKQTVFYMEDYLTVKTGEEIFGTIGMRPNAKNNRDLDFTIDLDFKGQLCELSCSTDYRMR

[16] = Hematological toxicity in human CD34-positive hematopoietic stem/progenitor cell supplemented with erythroid lineage assessed as reduction in cell viability incubated for 14 days by luminometric analysis; type: cell-based
[17] = system: Z-138; experiment: Induction of apoptosis in human Z138 cells assessed as late apoptotic cells at 2.0 nM incubated for 168 hrs by Annexin V-FITC/PI staining based flow cytometric analysis (reference value: 0.37 %); type: functional
[18] = Oral bioavailability in Sprague-Dawley rat at 10 mg/kg by LC-MS/MS analysis; type: ADME, organism-based; conditions: in vivo
[19] = biological target: Voltage-gated inwardly rectifying potassium channel KCNH2 (Homo sapiens, UniProt Q12809); experiment: Inhibition of human ERG; type: toxicity
Chain of Voltage-gated inwardly rectifying potassium channel KCNH2 (Q12809 whole entry): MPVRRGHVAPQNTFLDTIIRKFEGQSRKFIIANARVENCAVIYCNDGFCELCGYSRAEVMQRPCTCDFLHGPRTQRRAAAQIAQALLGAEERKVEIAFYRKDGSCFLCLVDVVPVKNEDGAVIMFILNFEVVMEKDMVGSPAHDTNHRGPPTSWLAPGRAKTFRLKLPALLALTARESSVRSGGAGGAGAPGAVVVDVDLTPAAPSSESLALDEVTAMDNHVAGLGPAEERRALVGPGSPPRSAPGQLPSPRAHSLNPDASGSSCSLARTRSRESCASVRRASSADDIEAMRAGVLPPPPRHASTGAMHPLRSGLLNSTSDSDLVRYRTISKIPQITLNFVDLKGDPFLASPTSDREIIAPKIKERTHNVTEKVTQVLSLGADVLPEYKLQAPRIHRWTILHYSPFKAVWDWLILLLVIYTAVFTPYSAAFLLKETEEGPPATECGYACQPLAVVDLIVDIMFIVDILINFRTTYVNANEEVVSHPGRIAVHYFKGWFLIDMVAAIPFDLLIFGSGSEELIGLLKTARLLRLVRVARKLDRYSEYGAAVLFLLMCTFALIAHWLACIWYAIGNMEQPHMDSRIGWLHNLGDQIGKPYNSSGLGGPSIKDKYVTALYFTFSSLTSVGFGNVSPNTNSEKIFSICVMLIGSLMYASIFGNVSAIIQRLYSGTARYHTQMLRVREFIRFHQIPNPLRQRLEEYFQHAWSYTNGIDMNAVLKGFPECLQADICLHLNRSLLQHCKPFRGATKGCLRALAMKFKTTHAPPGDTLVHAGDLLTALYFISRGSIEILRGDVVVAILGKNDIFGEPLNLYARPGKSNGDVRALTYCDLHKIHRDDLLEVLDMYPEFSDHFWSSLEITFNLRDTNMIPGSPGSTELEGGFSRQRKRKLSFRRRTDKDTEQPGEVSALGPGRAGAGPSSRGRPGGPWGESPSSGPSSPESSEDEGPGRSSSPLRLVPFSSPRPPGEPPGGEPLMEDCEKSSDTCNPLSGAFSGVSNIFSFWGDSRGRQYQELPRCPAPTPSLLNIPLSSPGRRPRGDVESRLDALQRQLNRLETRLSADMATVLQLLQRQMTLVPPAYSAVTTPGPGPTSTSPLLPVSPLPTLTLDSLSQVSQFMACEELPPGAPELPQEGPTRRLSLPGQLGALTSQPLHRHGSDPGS

[20] = Half-life in Sprague-Dawley rat at 2 mg/kg, iv by LC-MS/MS analysis; type: ADME, organism-based; conditions: in vivo
[21] = Hematological toxicity in human CD34-positive hematopoietic stem/progenitor cell supplemented with myeloid lineage assessed as reduction in cell viability incubated for 14 days by luminometric analysis; type: cell-based
[22] = system: Z-138; experiment: Cell cycle arrest in human Z138 cells assessed as accumulation of cells at G0/G1 phase incubated for 168 hrs by RNase A/PI staining based flow cytometric analysis; type: functional; conditions: dose 0.4-50 nM
[23] = system: Z-138; experiment: Induction of apoptosis in human Z138 cells assessed as necrotic cells at 50.0 nM incubated for 168 hrs by Annexin V-FITC/PI staining based flow cytometric analysis (reference value: 3.54 %); type: functional
[24] = AUC (0 to t) in Sprague-Dawley rat at 10 mg/kg, po by LC-MS/MS analysis; type: ADME, organism-based; conditions: Sprague-Dawley, in vivo
[25] = system: Z-138; experiment: Induction of apoptosis in human Z138 cells assessed as necrotic cells at 0.4 nM incubated for 168 hrs by Annexin V-FITC/PI staining based flow cytometric analysis (reference value: 3.54 %); type: functional
[26] = Hematological toxicity in human CD34-positive hematopoietic stem/progenitor cell supplemented with megakaryocytic lineage assessed as reduction in cell viability incubated for 14 days by luminometric analysis; type: cell-based
[27] = Cmax in Sprague-Dawley rat at 2 mg/kg, iv by LC-MS/MS analysis; type: ADME, organism-based; conditions: in vivo

| SMILES | IC50 [1] | Activity [2] | MRT last [3] | viability at 0.0004 µM [4] | viability at 0.002 µM [5] | Activity [6] | MRT last [7] | Activity [8] | IC50 [9] | Cmax [10] | Tmax [11] | AUC(0-t) [12] | Activity [13] | viability at 0.05 µM [14] | IC50 [15] | IC50 at 14 days [16] | Activity [17] | bioavailability [18] | IC50 [19] | half-life [20] | further results |
| --- | --- | --- | --- | --- | --- | --- | --- | --- | --- | --- | --- | --- | --- | --- | --- | --- | --- | --- | --- | --- | --- |
| CC(=O)N1CCC(Nc2cc(C(=O)NC[C@H](O)CN3CCc4ccccc4C3)ncn2)CC1 [PEMRAMETOSTAT] | > 10000 nM | 1.53% | 24 min | 95.6% | 95.1% | 1.97% | 66 min | 0.33% | > 10000 nM | 355 ng/mL | 78 min | 598 ng·h/mL | 7.12% | 53.4% | > 10000 nM | 43 nM | 0.31% | 13.5% | > 15000 nM | 18 min | IC50 at 14 days [21]: 222 nM; Activity [22]: Dose-dependent-effect; Activity [23]: 5.13%; AUC(0-t) [24]: 404 ng·h/mL; Activity [25]: 2.52%; IC50 at 14 days [26]: 55 nM; Cmax [27]: 1830 ng/mL |
| CC(=O)N1CC2(CC(Nc3cc4c(cn3)C3(CC3)CN(C[C@H](O)CN3CCc5ccccc5C3)C4=O)C2)C1 | > 10000 nM | 32.4% | 30 min | 95.3% | 62.1% | 22% | 102 min | 0.44% | > 10000 nM | 894 ng/mL | 6 min | 771 ng·h/mL | 54.5% | 7.61% | > 10000 nM | 216 nM | 9.25% | 26.7% | > 15000 nM | 24 min | IC50 at 14 days [21]: 511 nM; Activity [22]: Dose-dependent-effect; Activity [23]: 2.87%; AUC(0-t) [24]: 1030 ng·h/mL; Activity [25]: 2.41%; IC50 at 14 days [26]: 106 nM; Cmax [27]: 1370 ng/mL |
